Experimental data as given in patent US9320280B2, “Methods and compositions for deterring feeding/repelling the brown marmorated stink bug (BMSB), Halyomorpha halys” (The United States of America, as Represented by the …, priority 2012, dated 2016).
“Also recorded” adds a separate entry of the source.

How the values were obtained:
Halyomorpha halys [1] = assay: Optimized closed-air petri dish bioassay: feeding deterrence on green beans; type: in vivo; parameters: key to significance of repelling insect from treated bean relative to pentane control: p<0.05 (*); p<0.01 (**); p<0.001 (***); n.s.: compound tested was not significant in repelling insect from treated bean; conditions: for overall repellent effectiveness (conclusion): all age groups and sexes of H. halys
Description: Optimized petri dish bioassays: Insects tested were moved in groups from Thermo Forma cages to plastic petri dishes for food and water deprivation 16-20 hours before bioassays. Adults were separated by age and sex and held in groups of five, nymphs were held in groups of 20. Bioassays were conducted from April-June of 2012 between 8 a.m. and 4 p.m., in a fume hood lined with black paper and covered with black curtain to prevent external visual stimuli. The fume hood was illuminated by a single 60 watt light bulb with a light intensity of 800 LUX, placed 50 cm above bio assay arenas, with 26°-28° C. temperature and 50% relative humidity. Glass petri dishes (10 cm diameter) were used for the bioassay arena and were lined with Whatman's #1 filter paper (9 cm) that was changed before each assay. Adults were bioassayed individually. Nymphs were tested in groups of four because in preliminary assays they were observed continually walking for up to four hours unless conspecifics were present.
We then used the optimized solvent (i.e., pentane) to test the effects of different repellents on deterring H. halys feeding on organic green beans in petri dishes. Insects were tested in a glass Petri dish for their attraction/aversion to 1 μg and 100 μg concentrations of isolongifolanone and isolongifolenone (International Flavors and Fragrances, NY), C-13, and E-2-decenal, diluted in pentane. Pure pentane was tested as a control. Whatman's #1 filter paper (9 cm) was placed in petri dish and 2× one-inch diameter impressions were made with a metal circle. One circle was treated with 75 ul of pentane (control) and the other with pentane+repellant (treatment) and dried for five minutes. One-inch sections of organic green beans were placed over the treated or untreated circle. Starved insects were introduced to the petri dish assay arena and observed at three time points in 45 minute increments for 2.25 hours. Their location was recorded as feeding with stylet inserted on the treatment (i.e., odor) bean, blank bean, or off bean (i.e., walking off of food source or no movement in petri dish and not on bean). Individuals were only used for one bioassay at the adult or nymphal stage in their lifetime. Petri dishes were rinsed with water daily and baked overnight at 100° C., and were rinsed with acetone after every six uses.
Optimized petri dish bioassays were analyzed for each age group, sex, and treatment using Likelihood Ratio tests (JMP®). Percent response for each choice per compound was averaged over the three time periods observed. The likelihood of the three choices was set to the level determined by the pentane control for each age/sex group, and the confidence interval set at 95%. P-values are indicated as follows: *=0.05; **=0.01; ***=0.001.

Halyomorpha halys [2] = conditions: for feeding on solvent-treated versus untreated green bean: starved adult males ages 3-7 days, 35 μl of solvent on 1-inch section of green bean
Description: We tested the effects of solvent on H. halys survival and feeding behavior to optimize the solvent used in petri dish assays. Mortality of 3rd stage nymphs, and adult males and females (ages 3-7 days or 13-23 days into adult stage), was quantified as the percentage of individuals who died after exposure to methylene chloride (DCM) after 2.25 hours. […] Insects were starved for 16-20 hours prior to being exposed to 1 inch cut sections of organic green beans in a 10 cm petri covered glass petri dish. One bean was coated with […] solvent while the other was untreated. Behaviors of young adult male individuals were recorded at three time points (45, 90, and 135 minutes) as feeding on the blank (untreated) bean, feeding on the odor (solvent-treated) bean, or sitting on the wall of the petri dish. Percent response for each choice was averaged over the three time periods.

Halyomorpha halys [3] = assay: Open-air small cage bioassay: feeding deterrence/repellency on treated peaches and apples; type: in vivo; conditions: open-air system
Description: Small Cage Bioassays: Nymphs and adults were tested for effects of feeding deterrents/repellents from islongifolanone, islongifolenone, C-13, and E-2-decenal applied to organic peaches and gala apples in a small cage. Insects were starved for 16 hours prior to experiments before being transferred in groups of 15 (nymphs) or 10 (adults male or female) to two gallon containers containing one treated fruit, and observed hourly for the number of nymphs on the fruit. Experiments were conducted in a fume hood under the same light and heat conditions as above. Different concentrations of isolongifolanone, isolongifolenone, C-13, and E-2-decenal were tested both individually and combined (equal amount of each component), with a final concentration of 70-80 mg/fruit chosen as an effective treatment. Compounds (400 mg) were combined with the emulsifier Tween-80 (2 mg), mixed with water (H2O 10 ml) in glass vial (20 ml), and sonicated for 20 min. The solution containing emulsifier Tween-80 (2 mg) in 10 ml water was used as control. […]
Small cage bioassays were analyzed by replicate, treatment, and time using repeated measures ANOVA and multiple comparisons for treatments were tested using Tukeys HSD, Model: Nymphs on Fruit=Treatment, Rep (Treatment), Time, Treatment*Time.

[4] = Nymph (3rd stage), starved, 1 μg in pentane on filter paper under green bean
[5] = Nymph (3rd stage), starved, 100 μg in pentane on filter paper under green bean
[6] = Old Adult Male (13-23 days), 1 μg
[7] = Old Adult Male (13-23 days), 100 μg
[8] = Young Adult Male (3-7 days), 1 μg
[9] = Young Adult Male (3-7 days), 100 μg
[10] = old adult females, 100 μg, FIG. 6E
[11] = starved nymphs (3rd stage), 1 μg, FIG. 6A
[12] = starved nymphs (3rd stage), 100 μg, FIG. 6A
[13] = young adult females, 100 μg, FIG. 6C
[14] = young adult males (3-7 days), 100 μg, FIG. 6B

Molecule	repellency/deterrence across age groups and sexes (summary of Table 1) (Halyomorpha halys [1]; 100 μg concentration)	significance of repelling insect from treated bean relative to pentane control (Halyomorpha halys [1]; [4])	significance of repelling insect from treated bean relative to pentane control (Halyomorpha halys [1]; [5])	significance of repelling insect from treated bean relative to pentane control (Halyomorpha halys [1]; Old Adult Female, 1 μg)	significance of repelling insect from treated bean relative to pentane control (Halyomorpha halys [1]; Old Adult Female, 100 μg)	significance of repelling insect from treated bean relative to pentane control (Halyomorpha halys [1]; [6])	significance of repelling insect from treated bean relative to pentane control (Halyomorpha halys [1]; [7])	significance of repelling insect from treated bean relative to pentane control (Halyomorpha halys [1]; Young Adult Female, 1 μg)	significance of repelling insect from treated bean relative to pentane control (Halyomorpha halys [1]; Young Adult Female, 100 μg)	significance of repelling insect from treated bean relative to pentane control (Halyomorpha halys [1]; [8])	significance of repelling insect from treated bean relative to pentane control (Halyomorpha halys [1]; [9])	feeding on solvent-treated versus untreated green bean (Halyomorpha halys [2])	likelihood to feed on treated green bean (in words) (Halyomorpha halys [1]; [12])	likelihood to feed on treated green bean (in words) (Halyomorpha halys [1]; [14])	also measured
CCCCCCC/C=C/C=O [E-2-decenal]	effective at deterring old adult males	** (p<0.01 (**))	n.s.	n.s.	* (p<0.05 (*))	n.s.	* (p<0.05 (*))	n.s.	n.s.	** (p<0.01 (**))	n.s.				repellency/deterrence across age groups and sexes (summary of Table 1) (Halyomorpha halys [1]; 1 μg): effective at deterring Nymphs, young adult males, and old adult females; likelihood to feed on treated green bean (in words) (Halyomorpha halys [1]; young adult males (3-7 days), 1 μg, FIG. 6B): significantly less likely to feed
CCO [ethanol]												Less feeding aversion			
CC1(C)C2=CC(=O)CC(C)(C)[C@]23CC[C@H]1C3 [isolongifolenone]	deterring all groups except for old adult males	*** (p<0.001 (***))	** (p<0.01 (**))	n.s.	* (p<0.05 (*))	n.s.	n.s.	n.s.	*** (p<0.001 (***))	n.s.	*** (p<0.001 (***))		significantly less likely to feed	significantly less likely to feed	overall repellent effectiveness (conclusion) (Halyomorpha halys [1]): highly effective repellents; likelihood to feed on treated green bean (in words) (Halyomorpha halys [1]; [10]): significantly less likely to feed; also recorded: deterred; likelihood to feed on treated green bean (in words) (Halyomorpha halys [1]; [11]): significantly less likely to feed; likelihood to feed on treated green bean (in words) (Halyomorpha halys [1]; [13]): significantly less likely to feed; also recorded: deterred
CCCCC [pentane]												slight preference for pentane-treated green beans over the untreated control bean			
CC(C)=O [acetone]												significantly less likely to feed			
CCCCCCCCCCCCC [C-13, tridecane]		*** (p<0.001 (***))	** (p<0.01 (**))	n.s.	n.s.	n.s.	* (p<0.05 (*))	n.s.	n.s.	n.s.	* (p<0.05 (*))		significantly less likely to feed	significantly less likely to feed	repellency/deterrence across age groups and sexes (summary) (Halyomorpha halys [1]; concentration not given, diluted in pentane): deterrent to young males and old adult males and nymphs; also recorded: deterred H. halys feeding; likelihood to feed on treated green bean (in words) (Halyomorpha halys [1]; old adult males (13-23 days), 1 μg, FIG. 6D): significantly less likely to feed; likelihood to feed on treated green bean (in words) (Halyomorpha halys [1]; [11]): significantly less likely to feed; repellency in small cage tests compared with petri dish (Halyomorpha halys [3]): decreased repellency
CCCCCC [hexane]												significantly less likely to feed			
isolongifolanone	significantly repellent to all age groups and sexes		*** (p<0.001 (***))		*** (p<0.001 (***))		*** (p<0.001 (***))		*** (p<0.001 (***))		*** (p<0.001 (***))		significantly less likely to feed	significantly less likely to feed	overall repellent effectiveness (conclusion) (Halyomorpha halys [1]): highly effective repellents; likelihood to feed on treated green bean (in words) (Halyomorpha halys [1]; [10]): significantly less likely to feed; also recorded: deterred; likelihood to feed on treated green bean (in words) (Halyomorpha halys [1]; old adult males (13-23 days), 100 μg, FIG. 6D): significantly less likely to feed; likelihood to feed on treated green bean (in words) (Halyomorpha halys [1]; [13]): significantly less likely to feed; also recorded: deterred
ClCCl [methylene chloride (DCM), methylene chloride]												significantly less likely to feed			mortality (susceptibility) after exposure to solvent (Halyomorpha halys [2]; 3rd stage nymphs, adult males and females, after 2.25 hours): young adult males were the most susceptible
